# Reference: patent US20180055020A1, “Mice With Transgene Of iBox Peptide Inhibitor Of Group B p21-Activated Kinases” (Institute For Cancer Research d/b/a The Research Institute …, priority 2016, published 2018)
# How the values were obtained:
# Type in all cases: cell-based, mouse
# [1] = test system: Erk; test: Immunoblot of lysates of ROSA26-iBox MEFs for signaling molecules (Erk and P-Erk); conditions: lysates of MEFs expressing iBox (Adeno-Cre), FIG. 5D
# Protocol: (§1) Primary mouse embryo fibroblasts were established from E14 embryos from pregnant ROSA26-iBox mice. Cell lines were maintained in DMEM medium supplemented with 10% of FBS, 2 mM L-glutamine and 100 Um′ penicillin/streptomycin ay 37° C. in a humidified 5% CO2 incubator. To document iBox and EGFP expression, the MEFs were transduced with Adeno-Cre which removes the LSL cassette. MEFs were imaged to documents EGFP expression and lysates were probed by immunoblot to document iBox expression using anti-GST antibodies that recognize the GST protein that is fused to the N-terminus of iBox. These lysates were also probed with antibodies against Erk and P-Erk, Src and P-Src, Fak and P-Fak, as well as GAPDH.
# (§2) To analyze endogenous Pak4 activity, Pak4 was immunoprecipitated from ROSA26-iBox MEFs and Protein-A-Pak4 beads were incubated with recombinant Pacsin or CRTC1 for 10 minutes at 30° C. in a buffer containing 50 mM Tris-HCl, pH 7.5, 10 mM MgCl2, 1 mM DTT, and 50 μM ATP. Reactions were terminated with hot 6×SDS/PAGE buffer and the samples were analyzed by immunoblot using anti-P-pacsin or anti-P-CRTC1 antibodies. […] Inhibition of Erk, Src, and Fak was observed.
# [2] = test system: Src; test: Immunoblot of lysates of ROSA26-iBox MEFs for signaling molecules (Src and P-Src); conditions: lysates of MEFs expressing iBox (Adeno-Cre), FIG. 5D
# Protocol: as §1, §2
# [3] = test system: each of the tissues studied; test: Cell proliferation on expression of the iBox transgene (preliminary experiments)
# Protocol: Cells were plated at 2×10^3 in 96-well plates and 10 μl of 3-[4,5-dimethylthiazol-2-yl]-2,5-diphenyl tetrazolium bromide (MTT) solution was added to each well to a final concentration of 0.5 mg/ml. The reaction was stopped after 4 hours at 37° C. by adding 100 μl of solubilization solution (10% SDS in 0.01M HCl) and the samples were analyzed at 595 nm on Perkin Elmer Envision plate reader. Triplicates were performed for each sample, and experiments were performed on three occasions. […] An anti-Gst blot is shown.
# [4] = test system: Fak; test: Immunoblot of lysates of ROSA26-iBox MEFs for signaling molecules (Fak and P-Fak); conditions: lysates of MEFs expressing iBox (Adeno-Cre), FIG. 5D
# Protocol: as §1, §2
substance,measurement,setting,value
"iBox: Peptide inhibitor of Group B Paks, derived from amino acids 166 to 203 of human INKA-1, linked to GST, expressed from a transgene (GLEAEDWTAALLNRGRSRQPLVLGDNCFADLVHNWMEL; GST fusion; UniProt Q96EL1 166-203, looked up, fragment)",effect on Erk signaling (immunoblot),[1],Inhibition
same,effect on Src signaling (immunoblot),[2],Inhibition
same,effect of iBox transgene expression on cell proliferation,[3],inhibited cell proliferation
same,effect on Fak signaling (immunoblot),[4],Inhibition
